The values that follow come from US11840686B2, “Modulation of prekallikrein (PKK) expression” (Ionis Pharmaceuticals, Inc., priority 2013, dated 2023).

Strand notation (5' to 3'): a small letter for the sugar, then the base; units joined by * are phosphorothioate-linked, units joined directly phosphodiester-linked; [ ] holds rarer units or linkages, { } end groups; capitals alone tell only the bases. e = 2'-O-(2-methoxyethyl) (MOE); [5mC] = 5-methylcytosine; d = 2'-deoxy (DNA)

The subject of the data set is human PKK mRNA. In words: Antisense inhibition of human PKK mRNA in HepaRG cells, 3,000 nM (Example 1). The settings on record: Table 4; HepaRG cells, electroporation with 3,000 nM antisense oligonucleotide, approx. 24 hours; PKK mRNA by RT-PCR (RTS3454), relative to untreated control cells. It counts as cell-based. The method, boiled down: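 HepaRG cells, 20,000 per well, were electroporated with 3,000 nM 5-10-5 MOE gapmer (phosphorothioate, 5-methylcytosine). After about 24 h, PKK mRNA was measured by qRT-PCR with primer probe set RTS3454 and normalised to RIBOGREEN total RNA. Values are percent inhibition versus untreated cells.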
What is called % inhibition is the share of the control response that was lost under treatment. Read a low % inhibition as a response near the control. In the case of “531168 (antisense eA*e[5mC]*e[5mC]*e[5mC]*e[5mC]*dA*dA*d[5mC]*dA*dG*dA*d[5mC]*dA*dG*d[5mC]*e[5mC]*e[5mC]*eA*e[5mC]*e[5mC]) [compound 531168]”, the “% inhibition” value stood at 55%.

As for “531169 (antisense eT*eG*eG*eG*e[5mC]*dT*d[5mC]*dA*d[5mC]*d[5mC]*d[5mC]*d[5mC]*dA*dG*dT*eG*eG*eA*e[5mC]*e[5mC]) [compound 531169]”, the “% inhibition” value came to 54%.

In the case of “531170 (antisense eG*e[5mC]*e[5mC]*eT*eG*dG*d[5mC]*d[5mC]*d[5mC]*d[5mC]*d[5mC]*dA*dA*dG*dA*e[5mC]*eT*e[5mC]*eT*eA) [compound 531170]”, the “% inhibition” value was 54%.

For “531171 (antisense eA*eG*eG*e[5mC]*e[5mC]*dT*dG*d[5mC]*d[5mC]*dA*d[5mC]*dA*dG*dG*d[5mC]*e[5mC]*eA*eG*eA*e[5mC]) [compound 531171]”, the “% inhibition” value was 40%.

Take “531173 (antisense eA*eA*eA*eA*eT*dA*dA*d[5mC]*dT*dT*d[5mC]*dA*d[5mC]*dT*dA*eG*eA*eG*e[5mC]*eT) [compound 531173]”: the “% inhibition” value turned out to be 22%.

In the case of “531174 (antisense eT*eG*eT*eT*eA*dA*dG*dT*dA*dT*dA*dT*dT*dA*dA*e[5mC]*eT*eA*eT*eT) [compound 531174]”, the “% inhibition” value came to 10%.

In the case of “531175 (antisense eT*eA*e[5mC]*eT*e[5mC]*dA*dG*dG*dA*dA*dA*dT*dT*dA*dG*eA*eA*eT*eA*eT) [compound 531175]”, the “% inhibition” value was 25%.

As to “531176 (antisense eT*eT*eA*eT*eG*dA*dA*dA*d[5mC]*d[5mC]*dT*d[5mC]*dT*dT*dG*eA*eT*eT*eT*eG) [compound 531176]”, the “% inhibition” value amounted to 0%.

Regarding “531177 (antisense eT*eT*e[5mC]*eT*eT*dG*dT*dA*dA*dA*dT*dG*dT*d[5mC]*dT*eG*eA*eA*eT*eT) [compound 531177]”, the “% inhibition” value was 61%.

“531178 (antisense eA*e[5mC]*e[5mC]*eA*e[5mC]*dA*dG*dG*dA*dA*dA*d[5mC]*dT*dG*dT*eA*eG*e[5mC]*eA*eA) [compound 531178]”: the “% inhibition” value is on record as 72%.

On to “531179 (antisense eG*eA*eT*eT*eG*dG*dA*d[5mC]*d[5mC]*d[5mC]*dA*dG*dA*d[5mC]*dA*e[5mC]*eT*eA*eT*eA) [compound 531179]”, for which the “% inhibition” value worked out at 57%.

For the substance “531180 (antisense e[5mC]*e[5mC]*eT*e[5mC]*eT*dT*dA*dA*dG*dT*d[5mC]*dA*d[5mC]*d[5mC]*dA*eT*eA*eG*eA*e[5mC]) [compound 531180]”, the “% inhibition” value came to 45%.

Take “531181 (antisense eG*eG*eT*eT*eG*dA*dG*dG*dG*dA*d[5mC]*dA*dG*dA*d[5mC]*eA*e[5mC]*eA*eG*eG) [compound 531181]”: the “% inhibition” value worked out at 36%.

For the substance “531182 (antisense eA*eT*eA*eA*eT*d[5mC]*dA*dT*dG*dA*dT*dT*dT*dA*dT*eT*eT*eT*eG*e[5mC]) [compound 531182]”, the “% inhibition” value was found to be 34%.

For “531183 (antisense e[5mC]*eA*eT*eA*eA*dG*dA*dA*dT*dG*dT*dG*d[5mC]*dA*d[5mC]*eA*e[5mC]*eA*eA*eA) [compound 531183]”, the “% inhibition” value came to 39%.

On to “531184 (antisense eA*e[5mC]*eT*e[5mC]*eT*dT*dA*dT*dT*dA*dG*d[5mC]*dT*dG*dG*eT*eA*eG*eA*eA) [compound 531184]”, for which the “% inhibition” value turned out to be 74%.

Take “531185 (antisense eG*eG*eA*e[5mC]*e[5mC]*dA*dA*dA*dA*d[5mC]*dT*dG*dA*dG*dA*eG*eG*e[5mC]*eA*eG) [compound 531185]”: the “% inhibition” value stood at 63%.

Consider “531186 (e[5mC]*e[5mC]*eA*eT*eT*dA*d[5mC]*dT*d[5mC]*dT*d[5mC]*dA*dA*dG*d[5mC]*eT*e[5mC]*e[5mC]*eA*e[5mC]; antisense) [compound 531186]”, for which the “% inhibition” value is 75%.

With “531187 (eA*eT*e[5mC]*eT*eA*dT*dT*dG*dG*dT*dT*d[5mC]*dA*dG*dG*eA*eG*e[5mC]*e[5mC]*eA; antisense) [compound 531187]”, the “% inhibition” value stood at 72%.

For “531188 (eG*eT*eT*eA*eA*dA*dA*d[5mC]*dA*dA*d[5mC]*dT*dA*dG*dA*eA*eG*e[5mC]*e[5mC]*eA; antisense) [compound 531188]”, the “% inhibition” value is 67%.

Take “531189 (eA*eG*eG*eT*eG*dT*dT*d[5mC]*dT*dT*dG*d[5mC]*dT*dT*dA*eT*e[5mC]*e[5mC]*eT*e[5mC]; antisense) [compound 531189]”: the “% inhibition” value is given as 63%.

Take “531190 (eG*e[5mC]*eA*eG*eT*d[5mC]*dA*d[5mC]*dT*d[5mC]*d[5mC]*dT*d[5mC]*dT*dT*e[5mC]*e[5mC]*eA*eG*e[5mC]; antisense) [compound 531190]”: the “% inhibition” value is 59%.

Take “531191 (eA*eA*eG*eT*eG*dT*dA*dT*dT*dG*d[5mC]*d[5mC]*dT*dA*dG*eA*eT*eT*eT*e[5mC]; antisense) [compound 531191]”: the “% inhibition” value is given as 37%.

With “531192 (eG*eA*eG*eT*eG*d[5mC]*d[5mC]*dA*dT*d[5mC]*dT*dT*d[5mC]*dT*d[5mC]*eT*eG*e[5mC]*eA*e[5mC]; antisense) [compound 531192]”, the “% inhibition” value is given as 61%.

Turning to “531193 (eT*eT*eA*eT*eT*d[5mC]*d[5mC]*d[5mC]*dA*dG*d[5mC]*dT*d[5mC]*dT*dA*eA*eA*eA*eT*eA; antisense) [compound 531193]”, the “% inhibition” value was 23%.

Consider “531194 (e[5mC]*eT*e[5mC]*eA*e[5mC]*dA*dA*dT*dT*d[5mC]*dT*dG*dT*dA*dA*eG*eG*eG*eA*eA; antisense) [compound 531194]”, for which the “% inhibition” value was 64%.

Take “531195 (eA*eT*eA*eA*eA*dA*dT*dA*dT*dA*dT*dT*dA*dA*dG*eG*e[5mC]*eA*eA*e[5mC]; antisense) [compound 531195]”: the “% inhibition” value turned out to be 61%.

“531196 (eT*eT*eG*eA*eG*dT*d[5mC]*dA*dG*dA*d[5mC]*dA*dT*d[5mC]*d[5mC]*eT*eG*eT*eG*eA; antisense) [compound 531196]”: the “% inhibition” value was found to be 38%.

For the substance “531197 (eT*eA*e[5mC]*e[5mC]*eT*dT*dT*dT*d[5mC]*dT*d[5mC]*d[5mC]*dA*dT*dG*eT*e[5mC]*eA*eT*eT; antisense) [compound 531197]”, the “% inhibition” value is recorded as 42%.

With “531199 (e[5mC]*eT*eT*eT*eG*dA*dA*dT*dA*dG*dA*dA*dA*dA*dT*eG*eA*e[5mC]*eT*eA; antisense) [compound 531199]”, the “% inhibition” value is 1%.

Regarding “531200 (e[5mC]*eA*eA*eA*eA*dT*d[5mC]*dA*d[5mC]*dA*dA*dG*dT*dT*d[5mC]*eT*eA*eG*eA*eT; antisense) [compound 531200]”, the “% inhibition” value is given as 51%.

For “531201 (eT*eT*eT*e[5mC]*e[5mC]*dA*dA*dT*dA*d[5mC]*dT*dT*dT*dT*dA*e[5mC]*eA*eA*eA*eT; antisense) [compound 531201]”, the “% inhibition” value is 52%.

Consider “531202 (eA*eT*eT*eA*eA*dT*dA*dA*dG*d[5mC]*dA*dT*d[5mC]*dT*d[5mC]*eT*e[5mC]*eT*eG*eA; antisense) [compound 531202]”, for which the “% inhibition” value was found to be 31%.

For “531203 (eT*eG*eA*e[5mC]*eT*dA*dT*d[5mC]*d[5mC]*dA*dA*dT*dT*dT*d[5mC]*eT*eA*eG*eT*eT; antisense) [compound 531203]”, the “% inhibition” value was found to be 67%.

As for “531204 (e[5mC]*eT*eT*eG*eT*dA*dG*dT*d[5mC]*dT*dG*d[5mC]*dA*d[5mC]*dT*eT*eA*eA*eT*eG; antisense) [compound 531204]”, the “% inhibition” value is recorded as 60%.

Regarding “531205 (eA*e[5mC]*eA*eT*eT*dT*dT*dT*dT*dA*dA*dG*dT*dA*d[5mC]*eA*eG*eG*eA*eA; antisense) [compound 531205]”, the “% inhibition” value is 0%.

As to “531206 (eG*eA*eA*eA*eT*dG*dT*d[5mC]*dT*dA*dG*d[5mC]*dA*dT*dT*eT*eT*e[5mC]*eT*eA; antisense) [compound 531206]”, the “% inhibition” value is 28%.

“531207 (e[5mC]*e[5mC]*eA*e[5mC]*eT*dT*dA*dT*dT*dT*dG*dA*dT*dG*dA*e[5mC]*e[5mC]*eA*e[5mC]*eA; antisense) [compound 531207]”: the “% inhibition” value is 64%.

Consider “531208 (eT*e[5mC]*e[5mC]*eA*eG*dA*dA*dT*dA*d[5mC]*dT*dG*d[5mC]*d[5mC]*d[5mC]*e[5mC]*eA*eT*e[5mC]*eT; antisense) [compound 531208]”, for which the “% inhibition” value was determined as 23%.

Consider “531209 (eT*eG*eG*eA*eT*dT*d[5mC]*dA*dT*dT*dT*dT*d[5mC]*dT*dG*e[5mC]*eA*eA*eA*eT; antisense) [compound 531209]”, for which the “% inhibition” value is reported as 81%.

In the case of “531210 (eA*eG*eA*e[5mC]*eA*dT*dT*dG*dT*d[5mC]*dA*dA*dA*dT*dG*eT*e[5mC]*e[5mC]*e[5mC]*e[5mC]; antisense) [compound 531210]”, the “% inhibition” value was found to be 60%.

As for “531211 (eT*eT*eG*eA*eT*dG*dT*d[5mC]*dA*dG*d[5mC]*dA*d[5mC]*dT*dG*eT*eT*eG*eA*e[5mC]; antisense) [compound 531211]”, the “% inhibition” value is 77%.

As to “531212 (eA*e[5mC]*eA*eT*e[5mC]*dA*dG*dT*dA*dG*d[5mC]*dT*dT*d[5mC]*dA*eG*eA*eT*eG*eT; antisense) [compound 531212]”, the “% inhibition” value worked out at 56%.

For “531213 (e[5mC]*eA*eA*eA*eA*dT*dT*dA*dA*dT*dT*dG*dT*dG*d[5mC]*eA*eT*eA*eA*eT; antisense) [compound 531213]”, the “% inhibition” value is 13%.

On to “531214 (eT*eT*eT*eT*eT*d[5mC]*dT*dT*dT*dA*dA*dA*dT*dT*dT*eT*eG*e[5mC]*eT*eA; antisense) [compound 531214]”, for which the “% inhibition” value was determined as 37%.

Regarding “531215 (eT*eA*eG*eA*eG*dA*dT*dT*dT*dT*dA*dT*dG*dT*dA*e[5mC]*eT*eT*eG*eG; antisense) [compound 531215]”, the “% inhibition” value is on record as 63%.
